Values after ≈ are worked out from the molar mass of the structure shown. Starred links: 1 amine or outer side, 2 acyl side, 3 side chain; linkers in the order of their positions; H or OH if unused. Positions of bridges follow the written chain, without caps; N, C: chain ends. Non-standard residues stand in square brackets, D forms with d. Residues, ends and D or L forms follow the SMILES beside them. *: point of attachment. hTyr(3S-OH,4S-OH,3'-OSO3H) = N[C@H](C(=O)O)[C@H](O)[C@@H](O)c1ccc(O)c(OS(=O)(=O)O)c1; pTerphenylCO(4''-OnC5H11) = CCCCCOc1ccc(-c2ccc(-c3ccc(C(=O)*)cc3)cc2)cc1; Orn(4R-OH,5R-OH) = O=C([C@H](C[C@@H](O)[C@@H](O)N[*:3])N[*:1])[*:2]; hTyr(3S-OH,4S-OH) = N[C@H](C(=O)O)[C@H](O)[C@@H](O)c1ccc(O)cc1; Pro(3S-OH,4S-Me) = C[C@H]1CN[C@H](C(=O)O)[C@H]1O; X1 = CCCCCOc1ccc(-c2cc(-c3ccc(C(=O)*)cc3)no2)cc1; Gln(3R-OH) = NC(=O)C[C@@H](O)[C@H](N)C(=O)O; Hyp = O=C(O)[C@@H]1C[C@@H](O)CN1
How the values were obtained:
Type in all cases: functional
Candida albicans [1] = test: Antifungal activity against Candida albicans SC5314 expressing wild type FKS1 after 24 hrs by broth microdilution method; details: SC5314, 24 h
Candida albicans [2] = test: Antifungal activity against Candida albicans 4715 expressing FKS1 F641S mutant after 24 hrs by broth microdilution method; details: Candida albicans, 4715, 24 h
Candida albicans [3] = test: Antifungal activity against Candida albicans 2762 expressing FKS1 F641S mutant after 24 hrs by broth microdilution method; details: Candida albicans, 2762, 24 h
Candida albicans [4] = test: Antifungal activity against Candida albicans 32746 expressing FKS1 F641S mutant after 24 hrs by broth microdilution method; details: Candida albicans, 32746, 24 h
Candida albicans [5] = test: Antifungal activity against Candida albicans 4254 expressing FKS1 F641S mutant after 24 hrs by broth microdilution method; details: Candida albicans, 4254, 24 h
Candida albicans [6] = test: Antifungal activity against Candida albicans 41301 expressing FKS1 F641S mutant after 24 hrs by broth microdilution method; details: Candida albicans, 41301, 24 h
Candida albicans [7] = test: Antifungal activity against Candida albicans 41509 expressing FKS1 F641S mutant after 24 hrs by broth microdilution method; details: Candida albicans, 41509, 24 h
Candida albicans [8] = test: Antifungal activity against Candida albicans 43001 expressing FKS1 F641S mutant after 24 hrs by broth microdilution method; details: Candida albicans, 43001, 24 h
Candida albicans [9] = test: Antifungal activity against Candida albicans 42996 expressing FKS1 F641S mutant after 24 hrs by broth microdilution method; details: Candida albicans, 42996, 24 h
Candida albicans [10] = test: Antifungal activity against Candida albicans 42379 expressing FKS1 F645P mutant after 24 hrs by broth microdilution method; details: Candida albicans, 42379, 24 h
Candida albicans [11] = test: Antifungal activity against Candida albicans 53264 expressing FKS1 F645P mutant after 24 hrs by broth microdilution method; details: Candida albicans, 53264, 24 h
Candida albicans [12] = test: Antifungal activity against Candida albicans 5415 expressing FKS1 F645P/H mutant after 24 hrs by broth microdilution method; details: Candida albicans, 5415, 24 h
Candida albicans [13] = test: Antifungal activity against Candida albicans 42286 expressing wild type FKS1 after 24 hrs by broth microdilution method; details: Candida albicans, 42286, 24 h
Candida albicans [14] = test: Antifungal activity against Candida albicans SC5314 expressing wild type FKS1 after 24 hrs by broth microdilution method in presence of 50% human serum; details: SC5314, 24 h
Candida albicans [15] = test: Antifungal activity against Candida albicans 4715 expressing FKS1 F641S mutant after 24 hrs by broth microdilution method in presence of 50% human serum; details: Candida albicans, 4715, 24 h
Candida albicans [16] = test: Antifungal activity against Candida albicans 2762 expressing FKS1 F641S mutant after 24 hrs by broth microdilution method in presence of 50% human serum; details: Candida albicans, 2762, 24 h
Candida albicans [17] = test: Antifungal activity against Candida albicans 32746 expressing FKS1 F641S mutant after 24 hrs by broth microdilution method in presence of 50% human serum; details: Candida albicans, 32746, 24 h
Candida albicans [18] = test: Antifungal activity against Candida albicans 4254 expressing FKS1 F641S mutant after 24 hrs by broth microdilution method in presence of 50% human serum; details: Candida albicans, 4254, 24 h
Candida albicans [19] = test: Antifungal activity against Candida albicans 41301 expressing FKS1 F641S mutant after 24 hrs by broth microdilution method in presence of 50% human serum; details: Candida albicans, 41301, 24 h
Candida albicans [20] = test: Antifungal activity against Candida albicans 41509 expressing FKS1 F641S mutant after 24 hrs by broth microdilution method in presence of 50% human serum; details: Candida albicans, 41509, 24 h
Candida albicans [21] = test: Antifungal activity against Candida albicans 43001 expressing FKS1 F641S mutant after 24 hrs by broth microdilution method in presence of 50% human serum; details: Candida albicans, 43001, 24 h
Candida albicans [22] = test: Antifungal activity against Candida albicans 42996 expressing FKS1 F641S mutant after 24 hrs by broth microdilution method in presence of 50% human serum; details: Candida albicans, 42996, 24 h
Candida albicans [23] = test: Antifungal activity against Candida albicans 42379 expressing FKS1 F645P mutant after 24 hrs by broth microdilution method in presence of 50% human serum; details: Candida albicans, 42379, 24 h
Candida albicans [24] = test: Antifungal activity against Candida albicans 53264 expressing FKS1 F645P mutant after 24 hrs by broth microdilution method in presence of 50% human serum; details: Candida albicans, 53264, 24 h
Candida albicans [25] = test: Antifungal activity against Candida albicans 5415 expressing FKS1 F645P/H mutant after 24 hrs by broth microdilution method in presence of 50% human serum; details: Candida albicans, 5415, 24 h
Candida albicans [26] = test: Antifungal activity against Candida albicans 42286 expressing wild type FKS1 after 24 hrs by broth microdilution method in presence of 50% human serum; details: Candida albicans, 42286, 24 h

With `CCCCCOc1ccc(-c2ccc(-c3ccc(C(=O)N[C@H]4C[C@@H](O)[C@@H](O)NC(=O)[C@@H]5[C@@H](O)[C@@H](C)CN5C(=O)[C@H]([C@@H](C)O)NC(=O)[C@H]([C@H](O)[C@@H](O)c5ccc(O)cc5)NC(=O)[C@@H]5C[C@@H](O)CN5C(=O)[C@H]([C@@H](C)O)NC4=O)cc3)cc2)cc1` [ANIDULAFUNGIN] ({pTerphenylCO(4''-OnC5H11)}-[Orn(4R-OH,5R-OH)]T[Hyp][hTyr(3S-OH,4S-OH)]T[Pro(3S-OH,4S-Me)]; lactam 1-C) the MIC (Candida albicans [1]) was 0.03 µg/mL (≈ 0.0263 µM), the MIC (Candida albicans [2]) was 0.25 µg/mL (≈ 0.219 µM) and the MIC (Candida albicans [3]) was 0.5 µg/mL (≈ 0.438 µM). For the same molecule, the MIC (Candida albicans [4]) was 0.25 µg/mL (≈ 0.219 µM), the MIC (Candida albicans [5]) was 0.125 µg/mL (≈ 0.11 µM) and the MIC (Candida albicans [6]) was 0.25 µg/mL (≈ 0.219 µM). For the same molecule, the MIC (Candida albicans [7]) was 0.5 µg/mL (≈ 0.438 µM), the MIC (Candida albicans [8]) was 0.5 µg/mL (≈ 0.438 µM) and the MIC (Candida albicans [9]) was 0.125 µg/mL (≈ 0.11 µM). For the same molecule, the MIC (Candida albicans [10]) was 0.5 µg/mL (≈ 0.438 µM), the MIC (Candida albicans [11]) was 1 µg/mL (≈ 0.877 µM) and the MIC (Candida albicans [12]) was 1 µg/mL (≈ 0.877 µM). For the same molecule, the MIC (Candida albicans [13]) was 0.125 µg/mL (≈ 0.11 µM), the MIC (Candida albicans [14]) was 0.5 µg/mL and the MIC (Candida albicans [15]) was 8 µg/mL. It also gave an MIC (Candida albicans [16]) of 4 µg/mL, an MIC (Candida albicans [17]) of 8 µg/mL and an MIC (Candida albicans [18]) of 2 µg/mL. For the same molecule, the MIC (Candida albicans [19]) was 8 µg/mL, the MIC (Candida albicans [20]) was 8 µg/mL and the MIC (Candida albicans [21]) was 4 µg/mL. The MIC (Candida albicans [22]) was 4 µg/mL, the MIC (Candida albicans [23]) was 8 µg/mL and the MIC (Candida albicans [24]) was 32 µg/mL. It also gave an MIC (Candida albicans [25]) of 16 µg/mL and an MIC (Candida albicans [26]) of 1 µg/mL.
For `CC[C@H](C)C[C@H](C)CCCCCCCCC(=O)N[C@H]1C[C@@H](O)[C@@H](NCCN)NC(=O)[C@@H]2[C@@H](O)CCN2C(=O)[C@H]([C@H](O)CCN)NC(=O)[C@H]([C@H](O)[C@@H](O)c2ccc(O)cc2)NC(=O)[C@@H]2C[C@@H](O)CN2C(=O)[C@H]([C@@H](C)O)NC1=O` [CASPOFUNGIN], the MIC (Candida albicans [1]) was 0.125 µg/mL (≈ 0.114 µM), the MIC (Candida albicans [2]) was 2 µg/mL (≈ 1.83 µM) and the MIC (Candida albicans [3]) was 4 µg/mL (≈ 3.66 µM). It also gave an MIC (Candida albicans [4]) of 4 µg/mL (≈ 3.66 µM), an MIC (Candida albicans [5]) of 2 µg/mL (≈ 1.83 µM) and an MIC (Candida albicans [6]) of 4 µg/mL (≈ 3.66 µM). It also gave an MIC (Candida albicans [7]) of 4 µg/mL (≈ 3.66 µM), an MIC (Candida albicans [8]) of 4 µg/mL (≈ 3.66 µM) and an MIC (Candida albicans [9]) of 4 µg/mL (≈ 3.66 µM). The MIC (Candida albicans [10]) was 8 µg/mL (≈ 7.32 µM), the MIC (Candida albicans [11]) was 4 µg/mL (≈ 3.66 µM) and the MIC (Candida albicans [12]) was 8 µg/mL (≈ 7.32 µM). The MIC (Candida albicans [13]) was 2 µg/mL (≈ 1.83 µM), the MIC (Candida albicans [14]) was 0.25 µg/mL and the MIC (Candida albicans [15]) was 8 µg/mL. It also gave an MIC (Candida albicans [16]) of 8 µg/mL, an MIC (Candida albicans [17]) of 4 µg/mL and an MIC (Candida albicans [18]) of 4 µg/mL. The MIC (Candida albicans [19]) was 8 µg/mL, the MIC (Candida albicans [20]) was 8 µg/mL and the MIC (Candida albicans [21]) was 8 µg/mL. For the same molecule, the MIC (Candida albicans [22]) was 8 µg/mL, the MIC (Candida albicans [23]) was over 32 µg/mL and the MIC (Candida albicans [24]) was over 32 µg/mL. It also gave an MIC (Candida albicans [25]) of 32 µg/mL and an MIC (Candida albicans [26]) of 4 µg/mL.
`CCCCCOc1ccc(-c2cc(-c3ccc(C(=O)N[C@H]4C[C@@H](O)[C@@H](O)NC(=O)[C@@H]5[C@@H](O)[C@@H](C)CN5C(=O)[C@H]([C@H](O)CC(N)=O)NC(=O)[C@H]([C@H](O)[C@@H](O)c5ccc(O)c(OS(=O)(=O)O)c5)NC(=O)[C@@H]5C[C@@H](O)CN5C(=O)[C@H]([C@@H](C)O)NC4=O)cc3)no2)cc1` [MICAFUNGIN] (X1-[Orn(4R-OH,5R-OH)]T[Hyp][hTyr(3S-OH,4S-OH,3'-OSO3H)][Gln(3R-OH)][Pro(3S-OH,4S-Me)]; lactam 1-C) was tested, and the MIC (Candida albicans [1]) was 0.06 µg/mL (≈ 0.0472 µM), the MIC (Candida albicans [2]) was 1 µg/mL (≈ 0.787 µM) and the MIC (Candida albicans [3]) was 1 µg/mL (≈ 0.787 µM). It also gave an MIC (Candida albicans [4]) of 1 µg/mL (≈ 0.787 µM), an MIC (Candida albicans [5]) of 0.5 µg/mL (≈ 0.394 µM) and an MIC (Candida albicans [6]) of 0.5 µg/mL (≈ 0.394 µM). The MIC (Candida albicans [7]) was 0.5 µg/mL (≈ 0.394 µM), the MIC (Candida albicans [8]) was 2 µg/mL (≈ 1.57 µM) and the MIC (Candida albicans [9]) was 1 µg/mL (≈ 0.787 µM). It also gave an MIC (Candida albicans [10]) of 4 µg/mL (≈ 3.15 µM), an MIC (Candida albicans [11]) of 4 µg/mL (≈ 3.15 µM) and an MIC (Candida albicans [12]) of 1 µg/mL (≈ 0.787 µM). It also gave an MIC (Candida albicans [13]) of 1 µg/mL (≈ 0.787 µM), an MIC (Candida albicans [14]) of 1 µg/mL and an MIC (Candida albicans [15]) of 16 µg/mL. The MIC (Candida albicans [16]) was 16 µg/mL, the MIC (Candida albicans [17]) was 16 µg/mL and the MIC (Candida albicans [18]) was 8 µg/mL. For the same molecule, the MIC (Candida albicans [19]) was 16 µg/mL, the MIC (Candida albicans [20]) was 32 µg/mL and the MIC (Candida albicans [21]) was 16 µg/mL. The MIC (Candida albicans [22]) was 32 µg/mL, the MIC (Candida albicans [23]) was over 32 µg/mL and the MIC (Candida albicans [24]) was over 32 µg/mL. For the same molecule, the MIC (Candida albicans [25]) was 32 µg/mL and the MIC (Candida albicans [26]) was 8 µg/mL.

Reference: ChEMBL document CHEMBL1275553, “Pyrosequencing to detect mutations in FKS1 that confer reduced echinocandin susceptibility in Candida albicans” (2008)
